From paper PMC7024208, “In Silico and In Vitro Experimental Studies of New Dibenz[b,e]oxepin-11(6H)one O-(arylcarbamoyl)-oximes Designed as Potential Antimicrobial Agents” (Molecules, 2020) come the findings set out here.

≈ marks a conversion by molar mass, not a printed value. Where two headings read alike, the source gives them in different places.

The subject of data set [1] is B. subtilis ATCC 6633. As to the kind of experiment: Qualitative antimicrobial screening, adapted disk diffusion. As to conditions: for zone of inhibition at 5000 µg/mL (stock): ATCC6633, read-out: growth inhibition diameter. The arrangement: zone of inhibition: dose or concentration left out as unconfirmed. It is filed as cell-based, Bacillus subtilis. The method, then: (§1) The antimicrobial activities of the synthesized compounds were determined against ATCC reference and clinical microbial strains, i.e., Bacillus subtilis ATCC 6633, Staphylococcus aureus ATCC 25923, Escherichia coli ATCC 25922, Klebsiella pneumoniae 350, Pseudomonas aeruginosa 1671 and Candida albicans ATCC 10231, using as positive controls the antibiotic ticarcillin and the antifungal agent fluconazole. Microbial suspensions of 1.5 × 10^8 CFU/mL corresponding to 0.5 McFarland density obtained from 15–18 h bacterial cultures developed on solid media were used in our experiments. The antimicrobial activity was tested on Mueller-Hinton Agar (MHA) medium, while a Yeast Peptone Glucose (YPG) medium was used in case of C. albicans. The obtained compounds were solubilized in DMSO and the starting stock solution was of 5000 μg/mL concentration. The qualitative screening was performed by an adapted disk diffusion method as previously reported.

For data set [2], the system named is S. aureus ATCC 25923. The description is as above. It is filed as cell-based, Staphylococcus aureus. The arrangement: zone of inhibition: dose or concentration left out as unconfirmed. As to conditions: Staphylococcus aureus; for zone of inhibition at 5000 µg/mL (stock): ATCC25923, S. aureus ATCC 25923, adapted diffusion assay, read-out: growth inhibition diameter. The method, then:
as §1

Another data set has as its system P. aeruginosa ATCC 27853. The description is as above. It is filed as cell-based. Details: zone of inhibition: dose or concentration left out as unconfirmed. As to conditions: Pseudomonas aeruginosa; for zone of inhibition at 5000 µg/mL (stock): ATCC27853, P. aeruginosa ATCC 27853, adapted diffusion assay, read-out: growth inhibition diameter.
Data set [3] has as its system E. coli ATCC 25922. The description is as above. It is filed as cell-based, Escherichia coli. The arrangement: zone of inhibition: dose or concentration left out as unconfirmed. As to conditions: for zone of inhibition at 5000 µg/mL (stock): ATCC25922, read-out: growth inhibition diameter. The method, then: as §1
In the next data set the test system is K. pneumoniae 1771. Described as above. It is filed as cell-based, Klebsiella pneumoniae. The arrangement: zone of inhibition: dose or concentration left out as unconfirmed. As to conditions: for zone of inhibition at 5000 µg/mL (stock): Klebsiella pneumoniae, K. pneumoniae 1771, adapted diffusion assay, read-out: growth inhibition diameter.
Data set [4] deals with C. albicans ATCC 10231. Described as above. It is filed as cell-based, Candida albicans. The arrangement: zone of inhibition: dose or concentration left out as unconfirmed. The method, then:
as §1

The test system of data set [5] is B. subtilis ATCC 6633. Briefly: MIC by liquid medium microdilution. It is filed as cell-based, Bacillus subtilis. As to conditions: B. subtilis ATCC 6633, 24 h at 37 °C. The method, then: as §1
(§2) The quantitative assay of the antimicrobial activity was performed by the liquid medium microdilution method, in 96 multi-well plates, in order to establish the minimal inhibitory concentration (MIC). In this purpose, serial two-fold dilutions of the compounds ranging between 5000 and 4.8 µg/mL were performed in a 200 µL volume of broth and each well was seeded with 50 µL of microbial inoculum. Sterility control (wells containing only culture medium) and culture controls (wells containing culture medium seeded with the microbial inoculum) were used. The influence of the DMSO solvent was also quantified in a series of wells containing DMSO [36], diluted accordingly with the dilution scheme used for the compounds and for the positive controls.
In general terms: Broth dilution looks for growth in wells or tubes with falling amounts of substance.

The subject of data set [6] is C. albicans ATCC 10231. As to the kind of experiment: MIC by liquid medium microdilution. It is filed as cell-based. As to conditions: Candida albicans. The method, then:
as §1, §2

Data set [7] relates to E. coli ATCC 25922. As to the kind of experiment: MIC by liquid medium microdilution. It is filed as cell-based. As to conditions: Escherichia coli. The method, then:
as §1, §2

The subject of data set [8] is S. aureus ATCC 25923. As to the kind of experiment: MIC by liquid medium microdilution. It is filed as cell-based. As to conditions: Staphylococcus aureus. The method, then: as §1, §2
Data set [9] concerns B. subtilis ATCC 6633. Briefly: Antibiofilm activity (MBEC), micro-titer method on plastic inert substratum. It is filed as cell-based, Bacillus subtilis. As to conditions: B. subtilis ATCC 6633 biofilm on plastic substratum. The method, then:
(§3) The assessment of the new compounds influence on the microbial ability to colonize the plastic inert substratum was performed by the micro-titer method, following previously described protocols. The absorbance at 490 nm was measured with an LB 911 ELISA reader (Apollo, Berthold Technologies GmbH & Co. KG, Bad Wildbad, Germany). All biological experiments were performed in triplicates.

Data set [10] has as its system S. aureus ATCC 25923. The data set is described as above. It is filed as cell-based, Staphylococcus aureus. As to conditions: S. aureus ATCC 25923 biofilm on plastic substratum. The method, then: as §3
In data set [11] the test system is E. coli ATCC 25922. The description is as above. As to conditions: E. coli ATCC 25922 biofilm on plastic substratum. It is filed as cell-based, Escherichia coli. The method, then: as §3
The subject of data set [12] is C. albicans ATCC 10231. Described as above. As to conditions: C. albicans ATCC 10231 biofilm on plastic substratum. It is filed as cell-based, Candida albicans. The method, then:
as §3

Data set [13] is described as follows: Cytotoxicity, CellTiter Assay. It is filed as cell-based. As to conditions: human, HCT8 cells, 400–10 µg/mL tested. The method, then:
(§4) For the in vitro assessment of the cytotoxic effect, the HCT8 cells and the CellTiter Assay kit (Promega, Madison, WI, USA) and Annexin V-FITC Apoptosis Detection Kit I (BD Bioscience Pharmingen, Franklin Lakes, NJ, USA) were used. Briefly, for CellTiter Assay, 1 × 10^4 cells/well were plated in 96 well plate and 24 h after, were treated with the new compound at final concentration between 400 µg/mL–10 µg/mL. The viability was evaluated after 24 h by adding CellTiter aqueous solution and reading to spectrophotometer according to the manufacturer indications. The IC50 were calculated from the percent of viability reported to untreated cells using on line tools https://www.aatbio.com/tools/ic50-calculator. For Annexin V-FITC Apoptosis Detection Kit I, 5 × 10^5 cells were seeded in 3.5 cm diameter Petri dish and treated with 100 µg/mL compounds solution for 24 h. The total cells were resuspended in 100 µL of binding buffer, and stained with 5 µL Annexin V-FITC and 5 µL propidium iodide for 10 min in dark. At least 10,000 events from each sample were acquired using a flow cytometer (Beckman Coulter, Indianapolis, IN, USA). The percentage of cells affected by the treatment was determined by subtracting the percentage of apoptotic/necrotic cells in the untreated population from percentage of apoptotic cells in the treated population.

Data set [14] can be described thus: Annexin V-FITC/propidium iodide apoptosis analysis by flow cytometry. It is filed as cell-based. As to conditions: human, HCT8 cells, Annexin V-FITC/PI, read-out: viable cells (Q4). The method, then: as §4
In general terms: Flow cytometry measures light scatter and fluorescence of single cells or particles in a stream.

Setting [15] is: C. albicans ATCC 10231, adapted diffusion assay.
The mark [16] stands for this setting: Bacillus subtilis, B. subtilis ATCC 6633, adapted diffusion assay.
The mark [17] stands for this setting: Escherichia coli, E. coli ATCC 25922, adapted diffusion assay.
[18] abbreviates: Bacillus subtilis, ATCC6633, 24 h, read-out: MIC.
[19] abbreviates: ATCC25922, E. coli ATCC 25922, 24 h at 37 °C, read-out: MIC.
[20] abbreviates: ATCC25923, S. aureus ATCC 25923, 24 h at 37 °C, read-out: MIC.

Turning to `Cc1cccc(NC(=O)ON=C2c3ccccc3COc3ccccc32)c1` [Compound 7a, 6,11-Dihydrodibenz[b,e]oxepin-11(6H)one O-(3-tolyl-carbamoyl)oxime], the growth inhibition diameter result in the data set with B. subtilis ATCC 6633 [1] (B. subtilis ATCC 6633, adapted diffusion assay) is listed as “anti-B. subtilis”; in the data set with C. albicans ATCC 10231 [4] (setting [15]), “anti-C. albicans activity”. Also, the zone of inhibition stood at 8 mm in the data set with B. subtilis ATCC 6633 [1] (Bacillus subtilis, ATCC6633, read-out: growth inhibition diameter); 0 mm in the data set on S. aureus ATCC 25923 [2] (ATCC25923, read-out: growth inhibition diameter); 0 mm in the data set on P. aeruginosa ATCC 27853 (ATCC27853, read-out: growth inhibition diameter); 0 mm with E. coli ATCC 25922 [3] (Escherichia coli, ATCC25922, read-out: growth inhibition diameter); 0 mm in the data set with K. pneumoniae 1771 (Klebsiella pneumoniae, 1771, read-out: growth inhibition diameter); 8 mm in the data set with C. albicans ATCC 10231 [4] (Candida albicans, ATCC10231, read-out: growth inhibition diameter). Also, the MIC (commonly the smallest concentration in the dilution series that meets the test's criterion for growth inhibition) in the data set with B. subtilis ATCC 6633 [5] was 4.8 µg/mL (≈ 13.4 µM); against B. subtilis ATCC 6633 [5] (Bacillus subtilis, ATCC6633, 24 h), 4.8 to 39 µg/mL (≈ 13.4 to 109 µM); in the data set with C. albicans ATCC 10231 [6] (ATCC10231, 24 h) it was 4.8 µg/mL (≈ 13.4 µM); with E. coli ATCC 25922 [7] (ATCC25922, 24 h) it was > 5000 µg/mL; against S. aureus ATCC 25923 [8] (ATCC25923, 24 h), > 5000 µg/mL. The MBEC in the data set on B. subtilis ATCC 6633 [9] worked out at 156 µg/mL; with S. aureus ATCC 25923 [10], 39 µg/mL; with E. coli ATCC 25922 [11] it was 625 µg/mL; in the data set with C. albicans ATCC 10231 [12], 39 µg/mL. Besides, the IC50 (commonly the concentration needed to halve the response being measured) at 24 h in data set [13] turned out to be 264 µg/mL (≈ 737 µM). For the same compound, the viability at 24 h, 100 µg/mL in data set [14] worked out at 84.2%.

For `O=C(Nc1cccc(Cl)c1)ON=C1c2ccccc2COc2ccccc21` [Compound 7c, 6,11-Dihydrodibenz[b,e]oxepin-11(6H)one O-(3-chlorophenyl-carbamoyl)oxime], the zone of inhibition at 5000 µg/mL (stock) turned out to be 0 mm in the data set on B. subtilis ATCC 6633 [1] (setting [16]); 0 mm with S. aureus ATCC 25923 [2]; 0 mm in the data set on P. aeruginosa ATCC 27853; 4 mm with E. coli ATCC 25922 [3] (setting [17]); 0 mm in the data set on K. pneumoniae 1771; 8 mm with C. albicans ATCC 10231 [4] (Candida albicans, ATCC10231, C. albicans ATCC 10231, adapted diffusion assay, read-out: growth inhibition diameter). Further, the growth inhibition diameter entry was “active against” in the data set with E. coli ATCC 25922 [3] (E. coli ATCC 25922, adapted diffusion assay) and “active against” with C. albicans ATCC 10231 [4] (setting [15]). Moreover, the MIC in the data set with B. subtilis ATCC 6633 [5] (setting [18]) is > 5000 µg/mL; in the data set with C. albicans ATCC 10231 [6] (ATCC10231, C. albicans ATCC 10231, 24 h at 37 °C, read-out: MIC), 1250 µg/mL (≈ 3300 µM); with E. coli ATCC 25922 [7] (setting [19]) it was 1250 µg/mL (≈ 3300 µM); with S. aureus ATCC 25923 [8] (setting [20]), > 5000 µg/mL. This compound had an MBEC with C. albicans ATCC 10231 [12] of 4.8 µg/mL. The IC50 at 24 h in [13] amounted to 304 µg/mL (≈ 803 µM). The viability at 24 h, 100 µg/mL in [14] amounted to 89.8%.

Consider `CC1(C)S[C@@H]2[C@H](NC(=O)[C@H](C(=O)O)c3ccsc3)C(=O)N2[C@H]1C(=O)O` [Ticarcillin, ticarcillin, reference compound], for which the zone of inhibition at 5000 µg/mL (stock) in the data set on B. subtilis ATCC 6633 [1] (setting [16]) was found to be 15 mm; in the data set with S. aureus ATCC 25923 [2], 21 mm; with P. aeruginosa ATCC 27853, 17 mm; with E. coli ATCC 25922 [3] (setting [17]), 24 mm; in the data set on K. pneumoniae 1771, 0 mm. Besides, the values for the MIC in the data set with B. subtilis ATCC 6633 [5] (setting [18]), in the data set with E. coli ATCC 25922 [7] (setting [19]) and in the data set on S. aureus ATCC 25923 [8] (setting [20]) were 78 µg/mL (≈ 203 µM), 19.5 µg/mL (≈ 50.7 µM) and 9.76 µg/mL (≈ 25.4 µM), respectively. Besides, the MBEC in the data set on B. subtilis ATCC 6633 [9] was found to be 156 µg/mL; in the data set on S. aureus ATCC 25923 [10], 156 µg/mL; in the data set on E. coli ATCC 25922 [11] it was 625 µg/mL.
